Experimental data published in patent publication US9181237B2, “Substituted berbines and their synthesis” (MALLINCKRODT LLC, priority 2013, dated 2015).

How the values were obtained:
[1] = tested on: murine melanoma cell line, B16; assay: B16 cancer cell screening assay: inhibition of B16 proliferation; type: cell-based; settings: B16 cells exposed to several concentrations; for IC50: read-out: B16 Profile IC50
Protocol: (§1) The murine melanoma cell line, B16, was used to screen the activity of compounds comprising Formula (V). B16 cells were grown under standard conditions and exposed to several concentrations of each of the tested compounds.

[2] = tested on: murine melanoma cell line, B16; assay: B16 cancer cell screening assay: inhibition of lactate dehydrogenase (LDH) release; type: cell-based; settings: B16 cells exposed to several concentrations
Protocol: as §1

[3] = Mus musculus, B16, inhibition of B16 proliferation
[4] = Mus musculus, B16, inhibition of lactate dehydrogenase (LDH) release
[5] = inhibition of lactate dehydrogenase (LDH) release
[6] = inhibition of B16 proliferation

Structure (SMILES)	IC50 [1, 3]	IC50 [2, 4]	further results
CC[C@@H]1c2c(ccc(OC)c2O)C[C@H]2c3ccc(OC)cc3CCN12 [M-R-0001]	> 600 µM	175 µM	–
COc1ccc2c(c1)CCN1[C@H]2Cc2cc(O)c(OC)cc2[C@H]1C1CCC1 [M-R-0002]	200 µM	200 µM	–
COc1ccc2c(c1)CCN1[C@H]2Cc2ccc(OC)c(O)c2[C@H]1C1CCC1 [M-R-0003]	> 600 µM	150 µM	–
COc1ccc2c(c1)CCN1Cc3cc(OC)c(O)cc3C[C@@H]21 [M-R-0004]	> 600 µM	> 600 µM	–
COc1ccc2c(c1)CCN1[C@H](c3ccccc3)c3cc(OC)c(O)cc3C[C@@H]21 [M-R-0005]	35 µM	30 µM	–
COc1ccc2c(c1)CCN1[C@@H](c3ccccc3)c3cc(OC)c(O)cc3C[C@@H]21 [M-R-0006]	35 µM	35 µM	–
CCC[C@@H]1c2cc(OC)c(O)cc2C[C@H]2c3ccc(OC)cc3CCN12 [M-R-0007]	> 400 µM	–	B16 LDH IC50 [2, 5]: Inactive
COc1ccc2c(c1)CCN1Cc3c(ccc(OC)c3O)C[C@@H]21 [M-R-0008]	38 µM	> 320 µM	–
COc1ccc2c(c1)CCN1Cc3cc(OC)c(O)cc3C[C@H]21 [M-R-0009]	–	–	B16 Profile IC50 [1, 6]: Inactive; B16 LDH IC50 [2, 5]: Inactive
COc1ccc2c(c1)CCN1Cc3c(ccc(OC)c3O)C[C@H]21 [M-R-0010]	300 µM	–	B16 LDH IC50 [2, 5]: Inactive
COc1cc2c(cc1OC)CN1CCc3cc4c(cc3[C@@H]1C2)OCO4 [M-R-0011]	120 µM	70 µM	–
COc1ccc2c(c1O)[C@H](Cc1ccccc1)N1CCc3cc4c(cc3[C@@H]1C2)OCO4 [M-R-0012]	> 600 µM	> 700 µM	–
COc1cc2c(cc1O)[C@@H](Cc1ccccc1)N1CCc3cc4c(cc3[C@@H]1C2)OCO4 [M-R-0013]	–	700 µM	IC50 [1, 6]: 75 µM
COc1ccc2c(c1)CCN1[C@@H](c3ccccc3)c3cc(O)c(O)cc3C[C@@H]21 [M-R-0014]	10 µM	70 µM	–
COc1ccc2c(c1)CCN1[C@H](c3ccccc3)c3cc(O)c(O)cc3C[C@@H]21 [M-R-0015]	25 µM	130 µM	–
COc1ccc2c(c1)CCN1[C@H](Cc3ccccc3)c3c(ccc(OC)c3O)C[C@@H]21 [M-R-0016]	75 µM	700 µM	–
COc1ccc2c(c1)CCN1[C@H](Cc3ccccc3)c3cc(OC)c(O)cc3C[C@@H]21 [M-R-0017]	55 µM	60 µM	–
COc1cc2c(cc1O)C[C@H]1c3cc4c(cc3CCN1[C@H]2c1ccccc1)OCO4 [M-R-0018]	35 µM	30 µM	–
COc1cc2c(cc1O)C[C@H]1c3cc4c(cc3CCN1[C@@H]2c1ccccc1)OCO4 [M-R-0019]	45 µM	50 µM	–
COc1ccc2c(c1)CCN1[C@@H](c3ccccc3Br)c3c(O)c(OC)cc(Br)c3C[C@@H]21 [M-R-0020]	18 µM	30 µM	–
COc1ccc2c(c1)CCN1[C@H](Cc3ccccc3)c3c(O)c(OC)cc(Br)c3C[C@@H]21 [M-R-0021]	65 µM	~350 µM	–
COc1ccc2c(c1)CCN1[C@@H](c3ccccc3N)c3c(O)c(OC)cc(Br)c3C[C@@H]21 [M-R-0022]	25 µM	30 µM	–
COc1ccc2c(c1)CCN1[C@H](c3ccccc3)c3c(O)c(OC)cc(Br)c3C[C@@H]21 [M-R-0023]	27 µM	40 µM	–
COc1ccc2c(c1)CCN1[C@H](c3ccccc3)c3c(ccc(OC)c3O)C[C@@H]21 [M-R-0024]	60 µM	70 µM	–
COc1cc2c(cc1O)[C@@H](Cc1ccccc1)N1CCc3cc4c(cc3[C@@H]1C2)OCO4 [M-R-0025]	–	–	IC50 [1, 6]: > 160 µM; IC50 [2, 5]: ~350 µM
COc1cc2c(cc1O)[C@H](Cc1ccccc1)N1CCc3cc4c(cc3[C@@H]1C2)OCO4 [M-R-0026]	55 µM	60 µM	–
